The source made the active and inactive calls. The rule behind the calls is not given here.
Tested on: CCRIS mutagenicity, Ames/micronucleus/aberration tests
Test: CCRIS mutagenicity studies
[1] = Test System: AMES SALMONELLA TYPHIMURIUM, Strain/Indicator: TA98, Metabolic Activation: NONE, Method: STANDARD PLATE
[2] = Test System: AMES SALMONELLA TYPHIMURIUM, Strain/Indicator: TA98, Metabolic Activation: RAT, LIVER, S-9, AROCLOR 1254, Method: STANDARD PLATE
[3] = Test System: AMES SALMONELLA TYPHIMURIUM, Strain/Indicator: TA100, Metabolic Activation: NONE, Method: STANDARD PLATE
[4] = Test System: AMES SALMONELLA TYPHIMURIUM, Strain/Indicator: TA100, Metabolic Activation: RAT, LIVER, S-9, AROCLOR 1254, Method: STANDARD PLATE
[5] = Test System: MOUSE LYMPHOMA, Strain/Indicator: L5178Y (TK+/TK-), Metabolic Activation: NONE, Method: SUSPENSION/PLATE
[6] = Test System: MOUSE LYMPHOMA, Strain/Indicator: L5178Y (TK+/TK-), Metabolic Activation: RAT, LIVER, S-9, AROCLOR 1254, Method: SUSPENSION/PLATE
[7] = Test System: AMES SALMONELLA TYPHIMURIUM, Strain/Indicator: TA100, Metabolic Activation: NONE, Method: PREINCUBATION
[8] = Test System: AMES SALMONELLA TYPHIMURIUM, Strain/Indicator: TA1535, Metabolic Activation: NONE, Method: PREINCUBATION
[9] = Test System: AMES SALMONELLA TYPHIMURIUM, Strain/Indicator: TA1535, Metabolic Activation: NONE, Method: STANDARD PLATE
[10] = Test System: AMES SALMONELLA TYPHIMURIUM, Strain/Indicator: TA1535, Metabolic Activation: RAT, LIVER, S-9, AROCLOR 1254, Method: STANDARD PLATE
[11] = Test System: AMES SALMONELLA TYPHIMURIUM, Strain/Indicator: TA1537, Metabolic Activation: NONE, Method: STANDARD PLATE
[12] = Test System: AMES SALMONELLA TYPHIMURIUM, Strain/Indicator: TA1537, Metabolic Activation: RAT, LIVER, S-9, AROCLOR 1254, Method: STANDARD PLATE
[13] = Test System: AMES SALMONELLA TYPHIMURIUM, Strain/Indicator: TA1538, Metabolic Activation: NONE, Method: STANDARD PLATE
[14] = Test System: AMES SALMONELLA TYPHIMURIUM, Strain/Indicator: TA1538, Metabolic Activation: RAT, LIVER, S-9, AROCLOR 1254, Method: STANDARD PLATE

With `CCOC(=O)c1[nH]c2ccccc2c1N=Cc1cc(OC)c(OC)c(OC)c1` as the molecule, how does the mutagenic call (Test System: AMES SALMONELLA TYPHIMURIUM, Strain/Indicator: TA97, Metabolic Activation: NONE, Method: STANDARD PLATE) read?
The mutagenic call was “active; positive”.

What about the mutagenic call (Test System: AMES SALMONELLA TYPHIMURIUM, Strain/Indicator: TA97, Metabolic Activation: RAT, LIVER, S-9, AROCLOR 1254, Method: STANDARD PLATE) of the same molecule?
The mutagenic call was “inactive; negative”.

What about the mutagenic call [1] of the same molecule?
The mutagenic call was “inactive; negative”.

And the mutagenic call [2]?
The mutagenic call was “inactive; negative”.

What about the mutagenic call [3] of the same molecule?
Its mutagenic call is “inactive; negative”.

And the mutagenic call [4]?
Its mutagenic call is “inactive; negative”.

And the mutagenic call (Test System: AMES SALMONELLA TYPHIMURIUM, Strain/Indicator: TA102, Metabolic Activation: NONE, Method: STANDARD PLATE)?
Its mutagenic call is “inactive; negative”.

What about the mutagenic call (Test System: AMES SALMONELLA TYPHIMURIUM, Strain/Indicator: TA102, Metabolic Activation: RAT, LIVER, S-9, AROCLOR 1254, Method: STANDARD PLATE) of the same molecule?
Its mutagenic call is “inactive; negative”.

What does the source list for `CC(=O)N(O)CCCCCNC(=O)CCC(=O)N(O)CCCCCNC(=O)CCC(=O)N(O)CCCCCN`?
mutagenic call [5]: active; positive. reevaluation of results: positive; mutagenic call [6]: active; positive. reevaluation of results: positive

`C#C[C@]1(OC(=O)CCCCCC)CC[C@H]2[C@@H]3CCC4=CC(=O)CC[C@@H]4[C@H]3CC[C@@]21C` was tested. Which mutagenic call (Test System: AMES SALMONELLA TYPHIMURIUM, Strain/Indicator: TA98, Metabolic Activation: NONE, Method: PREINCUBATION) did it give?
Its mutagenic call is “inactive; negative”.

What about the mutagenic call [1] of the same molecule?
Its mutagenic call is “inactive; negative”.

And the mutagenic call (Test System: AMES SALMONELLA TYPHIMURIUM, Strain/Indicator: TA98, Metabolic Activation: RAT, LIVER, S-9, AROCLOR 1254, Method: PREINCUBATION)?
The mutagenic call was “inactive; negative”.

What about the mutagenic call [2] of the same molecule?
The mutagenic call was “inactive; negative”.

And the mutagenic call [7]?
Its mutagenic call is “inactive; negative”.

What about the mutagenic call [3] of the same molecule?
The mutagenic call was “inactive; negative”.

What about the mutagenic call (Test System: AMES SALMONELLA TYPHIMURIUM, Strain/Indicator: TA100, Metabolic Activation: RAT, LIVER, S-9, AROCLOR 1254, Method: PREINCUBATION) of the same molecule?
The mutagenic call was “inactive; negative”.

And the mutagenic call [4]?
Its mutagenic call is “inactive; negative”.

And the mutagenic call [8]?
The mutagenic call was “inactive; negative”.

What about the mutagenic call [9] of the same molecule?
The mutagenic call was “inactive; negative”.

And the mutagenic call (Test System: AMES SALMONELLA TYPHIMURIUM, Strain/Indicator: TA1535, Metabolic Activation: RAT, LIVER, S-9, AROCLOR 1254, Method: PREINCUBATION)?
Its mutagenic call is “inactive; negative”.

What about the mutagenic call [10] of the same molecule?
Its mutagenic call is “inactive; negative”.

And the mutagenic call (Test System: AMES SALMONELLA TYPHIMURIUM, Strain/Indicator: TA1537, Metabolic Activation: NONE, Method: PREINCUBATION)?
The mutagenic call was “inactive; negative”.

And the mutagenic call [11]?
The mutagenic call was “inactive; negative”.

And the mutagenic call (Test System: AMES SALMONELLA TYPHIMURIUM, Strain/Indicator: TA1537, Metabolic Activation: RAT, LIVER, S-9, AROCLOR 1254, Method: PREINCUBATION)?
Its mutagenic call is “inactive; negative”.

What about the mutagenic call [12] of the same molecule?
The mutagenic call was “inactive; negative”.

What about the mutagenic call (Test System: AMES SALMONELLA TYPHIMURIUM, Strain/Indicator: TA1538, Metabolic Activation: NONE, Method: PREINCUBATION) of the same molecule?
Its mutagenic call is “inactive; negative”.

And the mutagenic call [13]?
Its mutagenic call is “inactive; negative”.

And the mutagenic call (Test System: AMES SALMONELLA TYPHIMURIUM, Strain/Indicator: TA1538, Metabolic Activation: RAT, LIVER, S-9, AROCLOR 1254, Method: PREINCUBATION)?
The mutagenic call was “inactive; negative”.

What about the mutagenic call [14] of the same molecule?
Its mutagenic call is “inactive; negative”.

With `CC(=O)Nc1cc2c(cc1O)-c1ccccc1C2` as the molecule, how does the mutagenic call [2] read?
The mutagenic call was “inactive; negative”.

Which mutagenic call [5] does the source give for `O.O=P([O-])([O-])[O-].[Fe+3]` here?
Its mutagenic call is “inactive; negative. reevaluation of results: negative”.

And the mutagenic call [6]?
Its mutagenic call is “active; positive”.

And the mutagenic call (Test System: Mouse lymphoma, Strain/Indicator: L5178Y (tk+/tk-), Metabolic Activation: Rat, Liver, S-9, Aroclor 1254, Method: Suspension/plate)?
Its mutagenic call is “active; equivocal (previous evaluation positive)”.

How did the mutagenic call (Test System: AMES SALMONELLA TYPHIMURIUM, Strain/Indicator: TA98, Metabolic Activation: HAMSTER, LIVER, S-9, AROCLOR 1254, Method: STANDARD PLATE) turn out when `O=C1C=CC(=O)CC(=O)C1` was run?
Its mutagenic call is “inactive; negative”.

What about the mutagenic call [1] of the same molecule?
Its mutagenic call is “inactive; negative”.

And the mutagenic call [2]?
Its mutagenic call is “inactive; negative”.

And the mutagenic call (Test System: AMES SALMONELLA TYPHIMURIUM, Strain/Indicator: TA100, Metabolic Activation: HAMSTER, LIVER, S-9, AROCLOR 1254, Method: STANDARD PLATE)?
Its mutagenic call is “inactive; negative”.

What about the mutagenic call [3] of the same molecule?
The mutagenic call was “inactive; negative”.

And the mutagenic call [4]?
Its mutagenic call is “inactive; negative”.

And the mutagenic call (Test System: AMES SALMONELLA TYPHIMURIUM, Strain/Indicator: TA1535, Metabolic Activation: HAMSTER, LIVER, S-9, AROCLOR 1254, Method: STANDARD PLATE)?
The mutagenic call was “inactive; negative”.

What about the mutagenic call [9] of the same molecule?
Its mutagenic call is “inactive; negative”.

And the mutagenic call [10]?
The mutagenic call was “inactive; negative”.

What about the mutagenic call (Test System: AMES SALMONELLA TYPHIMURIUM, Strain/Indicator: TA1537, Metabolic Activation: HAMSTER, LIVER, S-9, AROCLOR 1254, Method: STANDARD PLATE) of the same molecule?
The mutagenic call was “inactive; negative”.

What about the mutagenic call [11] of the same molecule?
Its mutagenic call is “inactive; negative”.

And the mutagenic call [12]?
The mutagenic call was “inactive; negative”.

And the mutagenic call (Test System: AMES SALMONELLA TYPHIMURIUM, Strain/Indicator: TA1538, Metabolic Activation: HAMSTER, LIVER, S-9, AROCLOR 1254, Method: STANDARD PLATE)?
The mutagenic call was “inactive; negative”.

What about the mutagenic call [13] of the same molecule?
The mutagenic call was “inactive; negative”.

And the mutagenic call [14]?
Its mutagenic call is “inactive; negative”.

And the mutagenic call [5]?
The mutagenic call was “active; positive. reevaluation of results: positive”.

And the mutagenic call [6]?
The mutagenic call was “inactive; negative. reevaluation of results: negative”.

`c1ccc(-c2ccc(CC3CO3)cc2)cc1` (stereo not given) was tested. Which mutagenic call [7] did it give?
The mutagenic call was “active; positive”.

What about the mutagenic call [3] of the same molecule?
Its mutagenic call is “active; positive”.

And the mutagenic call [8]?
The mutagenic call was “active; positive”.

What about the mutagenic call [9] of the same molecule?
Its mutagenic call is “active; positive”.

From PubChem BioAssay AID1259407 (Chemical Carcinogenesis Research Information System (CCRIS), 2018)
